Entries after “also recorded” stand apart in the source; their conditions may differ. Where two headings read alike, the source gives them in different places.
Columns and labels:
[1] = system: superoxide dismutase (SOD1); assay: SOD1 expression in CYP-CIPN rat peripheral (sciatic) nerves, Western immunoblotting; type: in vivo; settings: 8-AG 5 mg/kg/day in drinking water from 2 weeks prior to CYP
Procedure: (§1) Animals. This study employed female Harlan Sprague Dawley (HSD) rats (3-4 mo; Envigo, Indianapolis, IN) and were divided into the following groups: 1) Control, 2) Cyclophosphamide (CYP, 75 mg/kg i.p. in saline vehicle; administered on days 0, 3 and 6); 3) 8-aminoguanine (8-AG; 5 mg/kg/day in drinking water; beginning 2 weeks prior to CYP and continuing until sacrifice (day 8)). The dose of 8-AG is based on our preliminary and published experiments. […] The investigation conforms to the Guide for the Care and Use of Laboratory Animals published by the US National Institutes of Health (NIH Publication No. 85-23, revised 1996). […]
(§2) Western immunoblotting: Following the testing paradigms, rats were deeply anesthetized and tissues (e.g., epidermis, peripheral sciatic nerves, spinal cord segments (L3-L5) and dorsal root ganglia (L3-L5) were removed, and a portion of each preparation was homogenized using Lysing Matrix D in a FASTPREP® 24 instrument (MP Biomedicals, Solon, OH) in HBSS [5 mM KCl, 0.3 mM KH2PO4, 138 mM NaCl, 4 mM NaHO3, 0.3 mM Na2HCO3, 0.3 mM Na2HPO4, 5.6 mM glucose and 10 mM Hepes, pH 7.4 containing complete protease inhibitor cocktail (1 tablet/10 ml, Roche, Indianapolis, IN)] and phosphatase inhibitor cocktail (Sigma, 1:100). […] The protein concentrations of the supernatants were determined using the Pierce BCA protein assay (Thermo Scientific, Rockford, IL). […]

CYP—CIPN rats = assay: Von Frey sensory testing in CYP-CIPN rats; type: in vivo, rat; settings: hindpaw, 8-AG 5 mg/kg/day in drinking water
Procedure: (§3) Animals. This study employed female Harlan Sprague Dawley (HSD) rats (3-4 mo; Envigo, Indianapolis, IN) and were divided into the following groups: 1) Control, 2) Cyclophosphamide (CYP, 75 mg/kg i.p. in saline vehicle; administered on days 0, 3 and 6); 3) 8-aminoguanine (8-AG; 5 mg/kg/day in drinking water; beginning 2 weeks prior to CYP and continuing until sacrifice (day 8)). The dose of 8-AG is based on our preliminary and published experiments. […] The investigation conforms to the Guide for the Care and Use of Laboratory Animals published by the US National Institutes of Health (NIH Publication No. 85-23, revised 1996). In addition, all tissues (dorsal root ganglion, spinal cord, peripheral nerves and hindpaw epidermis) were removed from isoflurane anesthetized rats and the tissue was used for various experimental approaches as described below. At the end of tissue removal, animals were sacrificed by thoracotomy.
Control, CYP and 8-AG-treated CYP rats were placed in an elevated chamber on a wire mesh floor and after acclimatization, calibrated von Frey microfilaments were applied to determine paw withdrawal threshold (PWT, in grams). Briefly, microfilaments (Stoelting Corp, USA) are applied with different forces perpendicularly to the plantar surface of both ipsilateral and contralateral hindpaw by increasing and decreasing stimulus intensity. […]

PGP 9.5 = PGP 9.5 expression in CYP-CIPN rat hindpaw epidermis, Western immunoblotting; type: in vivo; settings: 8-AG 5 mg/kg/day in drinking water
Procedure: as §1, §2

protein carbonylation = assay: Protein carbonylation in CYP-CIPN rat hindpaw epidermis; type: in vivo; settings: 8-AG 5 mg/kg/day in drinking water
Procedure: as §1, §2

Mst3b = Mst3b expression in CYP-CIPN rat epidermis, Western immunoblotting; type: in vivo; settings: 8-AG 5 mg/kg/day in drinking water
Procedure: as §1, §2

[2] = Pharmacokinetics of 8-aminoguanine: plasma disposition; type: in vivo; settings: single bolus 5 mg/kg through the jugular catheter; for half-life: Sprague-Dawley, rat, plasma, intravenous, 5 mg/kg
Procedure: Rats were anesthetized with urethane (Sigma-Aldrich, St. Louis, MO) at 1.2 g/kg. A continuous infusion of 0.9% sterile saline at 25 ul/min was established via a catheter inserted into the jugular vein. A second catheter to the carotid artery was established in order to collect blood samples (200 μl) which were drawn into a 1 ml syringe prefilled with 50 U heparin. Blood samples were centrifuged at 1300 g for 10 minutes and supernatant (plasma) was then quickly frozen on dry ice and stored at −80° C. until assay. Urine samples were collected by a urethral catheter, centrifuged at 416 g for 10 minutes to remove sediment, and stored as above. Baseline blood samples and urine samples were collected followed by a single bolus of 8-aminoguanine (8-AG, 5 mg/kg) administered through the jugular catheter. Blood samples were collected after 15, 30, 60, 120 and 240 minutes. Urine samples were collected at 1, 2, 4 and 6 hours.
Purines in urine were measured by mass spectrometry using multiple reaction monitoring. Blood samples were diluted 1 to 30 with water, and heavy isotope internal standards were added to each sample. Purines were separated by reversed-phase ultra-performance liquid chromatography (Waters UPLC BEH C18 column, 1.7 μm beads; 2.1×150 mm; Milford, MA) and quantified by multiple reaction monitoring using a triple quadrupole mass spectrometer (TSQ Quantum-Ultra; ThermoFisher Scientific, San Jose, CA) with a heated electrospray ionization source. The mobile phase was a linear gradient flow rate (300 uL/min) of 1% acetic acid in water (pH, 3; mobile phase A) and 100% methanol (mobile phase B), and was delivered with a Waters Acquity ultra-performance liquid chromatographic system. The gradient (A/B) settings were: from 0 to 2 minutes, 99.6%/0.4%; from 2 to 3 minutes, to 98.0%/2.0%; from 3 to 4 minutes, to 85.0%/15.0%; from 4 to 6.5 minutes, to 99.6%/0.4%. […]

[3] = system: glutathione peroxidase (GPx); assay: Glutathione peroxidase activity in CYP-CIPN rat tissues; type: in vivo; settings: 8-AG 5 mg/kg/day in drinking water
Procedure: as §1, §2

inosine and guanosine = assay: Purine levels (inosine, guanosine) in CYP-CIPN rat epidermis (footpad); type: in vivo; settings: 8-AG 5 mg/kg/day in drinking water
Procedure: as §3

Nc1nc2[nH]c(N)nc2c(=O)[nH]1 [8-AG, 8-Aminoguanine]
effect on CYP-induced decrease in SOD1 expression [1]: normalized; also recorded: prevented
effect on CYP-induced increase in sensitivity to mechanical stimuli (paw withdrawal threshold) (CYP—CIPN rats): restored to control values; also recorded: normalizes; also recorded: normalized to control conditions
effect on CYP-induced decrease in PGP 9.5 expression (PGP 9.5): restored to control values; also recorded: normalized
effect on CYP-induced protein carbonylation (protein carbonylation): completely prevents; also recorded: restored values to that of a control state
effect on CYP-induced decrease in Mst3b expression (Mst3b): completely restored; also recorded: completely prevented; also recorded: effective in restoring
half-life ([2]; read-out: half-life of first phase of decay (distribution from plasma into tissues) (converted)): 22.8 min
half-life ([2]; read-out: half-life of second phase (elimination from the body) (converted)): 2220 min
plasma disposition ([2]; rat plasma): bi-exponential decay
effect on CYP-induced increase in GPx activity ([3]; epidermis): significantly decreased; also recorded: restored values to that of a control state
effect on CYP-induced increase in GPx activity ([3]; peripheral (sciatic) nerves): normalized; also recorded: prevented
effect on CYP-induced decrease in guanosine levels (inosine and guanosine): normalizes; also recorded: completely restored
effect on CYP-induced decrease in inosine levels (inosine and guanosine): normalizes; also recorded: completely restored

— US20250127787A1, “METHODS FOR TREATING PERIPHERAL NEUROPATHY” (University of Pittsburgh - Of the Commonwealth System of …, priority 2021, published 2025)
